From US20120309739A1, “AKT / PKB INHIBITORS” (ALMAC DISCOVERY LIMITED, priority 2009, published 2012) come the findings set out here.

What all share (format): biochemical
Experiment [1] deals with T1, AKT2 (Homo sapiens, UniProt P31751).
T1 construct: purchased SignalChem
Briefly: AKT Kinase Assay (IMAP fluorescent polarisation) vs AKT2. The settings on record: activated AKT2, FAM Crosstide substrate. The procedure, abridged: (§1)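 IMAP fluorescence-polarisation read-out (485/528 nm) of 5′FAM-Crosstide phosphorylation; IC50 fitted by non-linear regression from % inhibition against vehicle. Fourteen-point half-log compound dilutions sat 45 min at room temperature with activated isoform at linear-range amount. ATP and substrate followed for 1 h, then a 1 h binding-reagent stop.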

Experiment [2] has as its target T2, AKT3 (Homo sapiens, UniProt Q9Y243).
T2 construct: purchased SignalChem
Put plainly: AKT Kinase Assay (IMAP fluorescent polarisation) vs AKT3. Conditions: activated AKT3, FAM Crosstide substrate. The method in brief:
as §1

The target in experiment [3] is T3, AKT1 (Homo sapiens, UniProt P31749).
T3 construct: purchased SignalChem
T3 sequence (P31749 whole entry): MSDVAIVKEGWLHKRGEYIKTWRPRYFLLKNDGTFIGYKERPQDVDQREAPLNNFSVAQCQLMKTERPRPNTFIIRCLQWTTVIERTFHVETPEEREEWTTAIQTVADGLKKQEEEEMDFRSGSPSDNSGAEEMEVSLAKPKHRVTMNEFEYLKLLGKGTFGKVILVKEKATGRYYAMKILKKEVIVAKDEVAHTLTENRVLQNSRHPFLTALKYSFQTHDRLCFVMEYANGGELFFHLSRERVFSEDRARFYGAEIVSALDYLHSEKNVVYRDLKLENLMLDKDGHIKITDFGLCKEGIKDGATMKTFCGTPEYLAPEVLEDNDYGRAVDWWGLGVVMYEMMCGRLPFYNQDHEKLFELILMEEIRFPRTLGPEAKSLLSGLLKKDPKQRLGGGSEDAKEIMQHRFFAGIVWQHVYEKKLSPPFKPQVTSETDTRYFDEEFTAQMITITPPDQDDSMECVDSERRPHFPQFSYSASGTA
Briefly: AKT Kinase Assay (IMAP fluorescent polarisation) vs AKT1. Conditions: activated AKT1, FAM Crosstide substrate. The procedure, abridged:
as §1

For orientation: IC50 means the point on the concentration scale where inhibition reaches its midpoint.

Molecules are shown by their SMILES. Structures can show the parent of a compound that is named as a salt. Bounds are passed on as bounds.

T1 sequence (P31751 whole entry): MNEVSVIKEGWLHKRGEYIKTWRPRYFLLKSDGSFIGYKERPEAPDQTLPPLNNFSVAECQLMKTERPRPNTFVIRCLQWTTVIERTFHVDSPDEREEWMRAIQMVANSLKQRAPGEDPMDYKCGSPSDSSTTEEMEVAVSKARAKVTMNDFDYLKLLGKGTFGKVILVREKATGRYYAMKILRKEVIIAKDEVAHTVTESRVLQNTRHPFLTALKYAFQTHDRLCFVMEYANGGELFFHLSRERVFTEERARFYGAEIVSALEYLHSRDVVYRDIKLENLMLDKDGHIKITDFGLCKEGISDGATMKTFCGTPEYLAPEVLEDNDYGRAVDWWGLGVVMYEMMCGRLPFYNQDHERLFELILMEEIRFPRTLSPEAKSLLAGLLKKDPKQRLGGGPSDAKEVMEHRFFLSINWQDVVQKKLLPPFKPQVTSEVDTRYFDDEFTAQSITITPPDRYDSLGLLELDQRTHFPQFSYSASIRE
T2 sequence (Q9Y243 whole entry): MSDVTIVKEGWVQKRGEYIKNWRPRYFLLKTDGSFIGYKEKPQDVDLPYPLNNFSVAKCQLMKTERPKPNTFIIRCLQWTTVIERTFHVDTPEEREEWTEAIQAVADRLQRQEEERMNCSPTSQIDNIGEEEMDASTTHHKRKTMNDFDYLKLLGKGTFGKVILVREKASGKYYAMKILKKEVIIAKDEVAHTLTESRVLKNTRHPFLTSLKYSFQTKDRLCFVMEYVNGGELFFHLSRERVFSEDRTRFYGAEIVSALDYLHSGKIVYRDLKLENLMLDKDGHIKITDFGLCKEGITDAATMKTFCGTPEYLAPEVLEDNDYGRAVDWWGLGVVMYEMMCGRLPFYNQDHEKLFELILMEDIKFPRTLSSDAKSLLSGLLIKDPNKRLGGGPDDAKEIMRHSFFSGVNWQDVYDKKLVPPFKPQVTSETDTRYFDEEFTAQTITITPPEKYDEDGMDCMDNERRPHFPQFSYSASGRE

Consider `NC1(c2ccc(-c3oc4ncn(CCO)c(=O)c4c3-c3ccccc3)cc2)CCC1` [Example 102, 6-(4-(1-Aminocyclobutyl)phenyl)-3-(2-hydroxyethyl)-5-phenylfuro[2,3-d]pyrimidin-4(3H)-one, HCl], for which the IC50 in experiment [1] was 100 to 1000 nM; in experiment [2] it was 1000 to 10000 nM; in experiment [3], 1000 to 10000 nM.
`NC1(c2ccc(-c3oc4ncn(CCF)c(=O)c4c3-c3ccccc3)cc2)CCC1` [Example 103, 6-(4-(1-Aminocyclobutyl)phenyl)-3-(2-fluoroethyl)-5-phenylfuro[2,3-d]pyrimidin-4(3H)-one, HCl]: the IC50 in experiment [1] was at most 100 nM; in experiment [2], 1000 to 10000 nM; in experiment [3], 100 to 1000 nM.
The like results for `CCn1cnc2oc(-c3ccc(C4(N)CCC4)cc3)c(-c3ccccc3)c2c1=O` [Example 104, 6-(4-(1-Aminocyclobutyl)phenyl)-3-ethyl-5-phenylfuro[2,3-d]pyrimidin-4(3H)-one, HCl] were, in that order, at most 100 nM, 1000 to 10000 nM and 1000 to 10000 nM.
The like results for `COCCn1cnc2oc(-c3ccc(C4(N)CCC4)cc3)c(-c3ccccc3)c2c1=O` [Example 105, 6-(4-(1-Aminocyclobutyl)phenyl)-3-(2-methoxyethyl)-5-phenylfuro[2,3-d]pyrimidin-4(3H)-one, HCl] were, in that order, 100 to 1000 nM, 1000 to 10000 nM and 1000 to 10000 nM.
The corresponding values for `NC1(c2ccc(-c3oc4ncn(CC(F)(F)F)c(=O)c4c3-c3ccccc3)cc2)CCC1` [Example 106, 6-(4-(1-Aminocyclobutyl)phenyl)-5-phenyl-3-(2,12-trifluoroethyl)furo[2,3-d]pyrimidin-4(3H)-one, HCl] are at most 100 nM, 1000 to 10000 nM and 1000 to 10000 nM.
Consider `CC(C)n1cnc2oc(-c3ccc(C4(N)CCC4)cc3)c(-c3ccccc3)c2c1=O` [Example 107, 6-(4-(1-Aminocyclobutyl)phenyl)-3-isopropyl-5-phenylfuro[2,3-d]pyrimidin-4(3H)-one, HCl], for which the IC50 fell in the range of 100 to 1000 nM in experiment [1], 1000 to 10000 nM in experiment [2] and 1000 to 10000 nM in experiment [3].
In the case of `NC1(c2ccc(-c3oc4ncn(CC(F)F)c(=O)c4c3-c3ccccc3)cc2)CCC1` [Example 108, 6-(4-(1-Aminocyclobutyl)phenyl)-3-(2,2-difluoroethyl)-5-phenylfuro[2,3-d]pyrimidin-4(3H)-one], the values for the half-inhibitory concentration (IC50) in experiment [1], in experiment [2] and in experiment [3] were at most 100 nM, 1000 to 10000 nM and 1000 to 10000 nM, respectively.
For `NC1(c2ccc(-c3oc4ccn(CC(F)(F)F)c(=O)c4c3-c3ccccc3)cc2)CCC1` [Example 109, 2-(4-(1-Aminocyclobutyl)phenyl)-3-Phenyl-5-(2,2,2-trifluoroethyl)furo[3,2-c]pyridin-4(5H)-one, HCl], the IC50 in experiment [1] is at most 100 nM; in experiment [2], above 10000 nM; in experiment [3], 1000 to 10000 nM.
The corresponding values for `NC1(c2ccc(-c3oc4nc(NCCO)n(CCF)c(=O)c4c3-c3ccccc3)cc2)CCC1` [Example 110, 6-(4-(1-Aminocyclobutyl)phenyl)-3-(2-fluoroethyl)-2-(2-hydroxyethylamino)-5-phenylfuro[2,3-d]pyrimidin-4(3H)-one] are at most 100 nM, 1000 to 10000 nM and 1000 to 10000 nM.
The corresponding values for `NC1(c2ccc(-c3oc4nc(NCCO)nc(OCCF)c4c3-c3ccccc3)cc2)CCC1` [Example 111, 2-((6-(4-(1-Aminocyclobutyl)phenyl)-4-(2-fluoroethoxy)-5-phenylfuro[2,3-d]pyrimidin-2-yl)amino)ethanol] are 100 to 1000 nM, 1000 to 10000 nM and at most 100 nM.
The corresponding values for `NC1(c2ccc(-c3oc4c(Br)cn(CCF)c(=O)c4c3-c3ccccc3)cc2)CCC1` [Example 112] are at most 100 nM, above 10000 nM and 100 to 1000 nM.
